Holding throughout (format): in vivo, New Zealand White rabbits
Series [1] is described as follows: Body weight at necropsy, cholesterol fed rabbit model. The note with it: cholesterol diet, OVX, necropsy at 20 weeks. How it is done: (§1) The model is considered relevant to the human atherosclerotic process, because the cellular events occurring during the development of the atherosclerotic lesions during the atherogenic diet are similar to those observed in different stages of atherosclerotic processes in coronary arteries.
(§2) An experiment was performed with 7 groups of sexually mature, virgin female New Zealand White rabbits (Harlan, Zeist, The Netherlands), age 7-9 months and weighing approximately 3 kg (number of […] per group: 13-14). During the acclimatization period the rabbits were fed a diet of standard commercial rabbit chow LKK20 (Hope Farms, Woerden, The Netherlands). Three weeks prior to the start of the experiment the animals were anaesthetized and underwent bilateral ovariectomy (OVX) or were sham operated. After three weeks, at the start of the experiment, the rabbits were randomized over the treatment groups. In all animals de-endothelialisation of a segment of the left carotid artery was applied by using the air-drying technique (Fishman, J.A. et al., "Endothelial regeneration in the rat carotid artery and the significance of endothelial denudation in the pathogenesis of myointimal thickening", Lab. Invest. 1975, 32, 339-351; and Lafont, A. et al., "Restenosis and experimental angioplasty: Intimal, medial and adventitial changes associated with constructive remodeling", Circulation Research, 1995, 76, 996-1002)
(§3) The animals were randomly allocated into 7 experimental groups using a randomized block design. The groups were fed an atherogenic diet (commercial rabbit chow (LKK20) enriched with 0.4 grams cholesterol, 3.75 grams coconut oil and 3.75 grams peanut oil per 100 grams). One group was fed the standard rabbit chow (LKK20). Food intake was restricted to 80 grams daily.
(§4) The treatments (Table I) were daily administered orally as a tablet, prepared as in Example 1. Groups 1, 2 and 3 were on a daily placebo treatment. Groups 4-5 were treated with 7α-methyl-17α-ethynyl-17β-hydroxy-estra-5(10)-en-3-one (OD-14; tibolone; 6 or 2 mg daily); group 6 with 17β-estradiol (4 mg daily). Group 7 was on treatment with 17β-estradiol decanoate (150 µg in 1 ml arachis oil injected subcutaneously once a week).
(§5) During the experiment blood samples were drawn out of the central ear artery after sedation with Hypnorm (0.1 ml i.m.) (Janssen Pharmaceutics, Beerse, Belgium) before the daily treatment, at week 4,8,12,16 and 20, to monitor the plasma cholesterol levels and to measure, at week 17, plasma estradiol levels and plasma tibolone levels. Twenty weeks after the start of the experiment animals were anaesthetized by an i.m. injection of Hypnorm (0.5 ml/kg). After blood sampling the rabbits were killed by exsanguination and the aortic arch, uterus and carotid artery removed for further analyses.
(§6) In addition to example 2 an additional experiment was performed with two lower doses of Org OD14 and a higher dose of estradiol decanoate. […] The procedures were identical to those in example 2.
(§7) Three weeks prior to the start of the experiment the animals were ovariectomized. At the start of the experiment the carotid artery was de-endothelialised using the air-drying technique. The normal rabbit chow was replaced by the atherogenic diet except for the control group which received during the experiment the normal rabbit chow.
(§8) The treatments (table II) of group 1, 2, 3 and 4 were daily administered orally as a tablet, prepared as in example 1. The doses of Org OD14 per tablet, however, were 0.6 mg and 0.15 mg respectively. Group 5 was on treatment with 17β-estradiol decanoate (300 µg in 1 ml arachis oil injected subcutaneously once a week). Twenty weeks after the start of the experiment was ended in the same manner as described in example 2.
After 20 weeks of diet and of daily treatment, necropsy was performed to determine the accumulation of cholesterol and fatty streaks in the aortic arch and the advanced lesions in the carotid artery. […]

The subject of series [2] is female ovariectomized rabbits. As to the kind of experiment: Fatty streaks in the aortic arch (Sudan Red, image analysis). The settings on record: for Fatty streak in aortic arch: cholesterol diet, OVX, necropsy at 20 weeks. How it is done: as §1, §2, §3, §4, §5, §6, §7, §8
The aortic arch was dissected free, opened longitudinally and fixed in 2% paraformaldehyde. The tissue was then stained for lipids using 0.3% (w/v) Sudan Red. Colour photographs were taken of all segments. […]

Series [3] deals with female ovariectomized rabbits. As to the kind of experiment: Intimal thickening (advanced lesions) in carotid artery after de-endothelialisation. The note with it: for Advanced lesions in carotid artery: intimal surface: cholesterol diet, OVX, necropsy at 20 weeks. How it is done: as §1, §2, §3, §4
During the experiment blood samples were drawn out of the central ear artery after sedation with Hypnorm (0.1 ml i.m.) (Janssen Pharmaceutics, Beerse, Belgium) before the daily treatment, at week 4,8,12,16 and 20, to monitor the plasma cholesterol levels and to measure, at week 17, plasma estradiol levels and plasma tibolone levels. Twenty weeks after the start of the experiment animals were anaesthetized by an i.m. injection of Hypnorm (0.5 ml/kg). After blood sampling the rabbits were killed by exsanguination and the aortic arch, uterus and carotid artery removed for further analyses. […]
The left (airdried) carotid artery was dissected and fixed in 2% paraformaldehyde containing 6.8% glucose. The right carotid artery was used as comparison. After fixation the tissue was divided in blocks with a length of 2 mm and embedded in paraffin (Paraplast plus®, Sherwood Medical Co, St. Louis, USA) using an automated tissue processor (Hypercenter XP, Shandon).
To measure intimal thickening (using image analysis) a specific staining method and a belonging image analysis application have been developed.
Measurements were performed on 2 µm transverse sections which were treated with elastase (Serva Feinbiochemica Gmbh, Heidelberg, Germany) prior to elastin staining with Lawson solution (Boom, Meppel, the Netherlands) and light green (Sigma). Subsequently sections were airdried and mounted in Pertex (Leica Gmbh, Nussloch, Germany).
For morphological study both methylene blue/Azur II and hemotoxylin/eosin stained (2 µm) transverse sections were used. Smooth muscle cells and macrophages were detected with respectively α-actin antibodies (Sigma) and anti-macrophage antibodies (RAM11, DAKO, Glostrup, Denmark). […]

Series [4] can be described thus: Plasma estradiol and plasma tibolone levels at week 17. The settings on record: rabbit, 6 mg per day. How it is done: as §5
The plasma levels indicate that both modes of administration of estradiol lead to effective plasma levels. Using the human doses of estradiol and Org OD14 used for HRT treatment and corrected for the caloric intake it was expected that in the rabbit an oral dose of 4 mg estradiol is about equipotent with 6 mg Org OD14.

Setting [5] is: Example 2, Group 4: 6 mg orally daily.
Setting [6] is: Example 2, Group 5: 2 mg orally daily.
[7] abbreviates: Example 3: 0.15 mg orally once daily.
[8] abbreviates: Example 3: 0.6 mg orally once daily.
[9] abbreviates: Example 2: Org OD14 2 and 6 mg, E2 4 mg orally daily, E2D 150 µg s.c. weekly.

SMILES strings stand for the structures.

Consider `C#C[C@]1(O)CC[C@H]2[C@@H]3[C@H](C)CC4=C(CCC(=O)C4)[C@H]3CC[C@@]21C` [Org OD14, 7α-methyl-17α-ethynyl-17β-hydroxy-estra-5(10)-en-3-one], for which the Body weight is recorded as 2758 ± 41 grams in series [1] (setting [5]), 2815 ± 50 grams in series [1] (setting [6]), 2850 ± 42 grams in series [1] (setting [7]) and 3008 ± 58 grams in series [1] (setting [8]). Moreover, the “Fatty streak in aortic arch” value is 1.3 ± 0.8 % of arcus covered in series [2] (setting [5]), 1.4 ± 0.7 % of arcus covered in series [2] (setting [6]), 23.5 ± 5.3 % of arcus covered in series [2] (setting [7]) and 5.9 ± 2.4 % of arcus covered in series [2] (setting [8]). Besides, in series [2] (setting [9]), the “Fatty streak formation in the aortic arch (in words)” value is listed as “(nearly) completely prevented the fatty streak formation”. Further, the “Advanced lesions in carotid artery: intimal surface” value in series [3] (setting [5]) is given as 0.13 ± 0.03 * mm^2; in series [3] (setting [6]) it was 0.14 ± 0.02 * mm^2; in series [3] (setting [7]) it was 0.24 ± 0.05 mm^2; in series [3] (setting [8]), 0.14 ± 0.01 * mm^2. Further, the “Histology of the lesions” value in series [3] (Example 2, carotid artery, placebo on cholesterol diet: smooth muscle cells and foam cells) is “the lesions consisted only of smooth muscle cells”. Besides, in series [3] (setting [9]), the “advanced lesion formation following mechanical de-endothelisation (in words)” value is recorded as “strongly inhibited the formation of advanced lesions”. In addition, the “plasma concentrations of Org OD14” value in series [4] is listed as “comparable to those obtained in women with the clinical dose of 2.5 mg”.
